One test addresses human CB2 receptors (Homo sapiens (Human), UniProt P34972). Briefly: functional cAMP assay, CHO cells expressing human CB2. Format: cell-based. The conditions noted are these: for EC50: Human CB2 EC50 (uM); for pEC50: read-out: Human CB2 EC50. A digest of the protocol: (§1)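 Agonist EC50 values came from cAMP levels in CHO cells carrying human CB1 or CB2, after 30 min of compound treatment at 30 °C in the presence of 1 mM IBMX. Detection used a time-resolved FRET cAMP kit read against a cAMP standard curve.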

A further test concerns the target human CB1 receptors (Homo sapiens (Human), UniProt P21554). Briefly: functional cAMP assay, CHO cells expressing human CB1. It is filed as cell-based. In short, it runs like this:
as §1
For orientation: Cyclic AMP is a second messenger, typically raised through Gs and lowered through Gi signalling.

Setting [1] is: read-out: Human CB1 EC50; functional cAMP assay, CHO cells expressing human CB1.
The mark [2] stands for this setting: Human CB1 EC50 (uM), functional cAMP assay, CHO cells expressing human CB1.
Where [3] appears, read: functional cAMP assay, CHO cells expressing human CB1; read-out: Human CB1 EC50.

We go through 19 molecules from patent US9409866B2, “Pyridine-2-amides useful as CB2 agonists” (Hoffmann-La Roche Inc., priority 2012, dated 2016).

pEC50: −log10 of the molar value. Read-outs that look alike come from different tables or passages of the source. Some results are limits rather than exact numbers.

Sequence of human CB1 receptors (P21554 whole entry): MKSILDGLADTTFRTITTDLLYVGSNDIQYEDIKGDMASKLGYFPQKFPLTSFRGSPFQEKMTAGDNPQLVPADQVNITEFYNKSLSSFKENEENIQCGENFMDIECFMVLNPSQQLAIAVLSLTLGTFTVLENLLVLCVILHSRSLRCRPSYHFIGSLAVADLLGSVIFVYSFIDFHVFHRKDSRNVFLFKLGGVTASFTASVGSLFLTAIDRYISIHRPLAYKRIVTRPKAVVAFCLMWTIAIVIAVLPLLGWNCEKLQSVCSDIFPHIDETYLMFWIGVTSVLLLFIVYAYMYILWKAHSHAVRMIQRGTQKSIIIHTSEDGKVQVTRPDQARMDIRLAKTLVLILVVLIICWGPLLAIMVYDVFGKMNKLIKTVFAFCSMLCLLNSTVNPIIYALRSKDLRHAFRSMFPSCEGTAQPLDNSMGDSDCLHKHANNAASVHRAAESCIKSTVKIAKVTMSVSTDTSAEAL
Sequence of human CB2 receptors (P34972 whole entry): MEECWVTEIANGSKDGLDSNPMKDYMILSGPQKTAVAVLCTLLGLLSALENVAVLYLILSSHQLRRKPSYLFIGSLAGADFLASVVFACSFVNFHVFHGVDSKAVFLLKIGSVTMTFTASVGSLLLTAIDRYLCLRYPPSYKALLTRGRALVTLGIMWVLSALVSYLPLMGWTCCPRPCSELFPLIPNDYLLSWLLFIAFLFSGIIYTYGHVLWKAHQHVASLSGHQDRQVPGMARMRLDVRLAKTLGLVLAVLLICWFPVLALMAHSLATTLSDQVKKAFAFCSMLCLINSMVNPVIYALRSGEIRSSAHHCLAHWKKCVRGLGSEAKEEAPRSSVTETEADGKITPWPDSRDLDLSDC

At human CB2 receptors, `CNC(=O)C(NC(=O)c1cc(OCC(F)(F)F)c(C2CC2)cn1)C(C)(C)C` (single isomer, unassigned) [Example 225, 5-cyclopropyl-N-[3,3-dimethyl-1-(methylamino)-1-oxobutan-2-yl]-4-(2,2,2-trifluoroethoxy)pyridine-2-carboxamide] returned an EC50 of 0.0004 µM. On human CB1 receptors (setting [1]), the pEC50 was less than 5.00.
With `CNC(=O)C(NC(=O)c1cc(OCC(F)(F)F)c(C2CC2)cn1)C(C)(C)C` (single isomer, unassigned) [Example 224, 5-cyclopropyl-N-[3,3-dimethyl-1-(methylamino)-1-oxobutan-2-yl]-4-(2,2,2-trifluoroethoxy)pyridine-2-carboxamide], the EC50 at human CB2 receptors was 0.0573 µM; at human CB1 receptors (setting [2]) it was more than 10 µM.
Turning to `CCC(CC)(NC(=O)c1cc(OCC2(C)COC2)c(C2CC2)cn1)C(=O)NCCCF` [Example 234, 5-cyclopropyl-N-[3-(3-fluoropropylcarbamoyl)pentan-3-yl]-4-[(3-methyloxetan-3-yl)methoxy]pyridine-2-carboxamide], the pEC50 was 6.34 at human CB2 receptors and less than 5.00 at human CB1 receptors (setting [3]).
Regarding `CC(C)(C)C(NC(=O)c1cc(OCC2CC2)c(C2CC2)cn1)c1nccs1` (centres unmarked) [Example 43, 5-Cyclopropyl-4-cyclopropylmethoxy-pyridine-2-carboxylic acid (2,2-dimethyl-1-thiazol-2-yl-propyl)-amide], the results for the pEC50 on human CB2 receptors and at human CB1 receptors (setting [3]) were 8.49 and less than 5.00, respectively.
With `NC(=O)[C@H]1CC(F)(F)CN1C(=O)c1cc(OCC(F)(F)F)c(C2CC2)cn1` [Example 122, (2R)-1-[5-cyclopropyl-4-(2,2,2-trifluoroethoxy)pyridine-2-carbonyl]-4,4-difluoropyrrolidine-2-carboxamide], the pEC50 on human CB2 receptors was 6.40; on human CB1 receptors (setting [3]), less than 5.00.
In the case of `Cc1nc(C(C)(CC2CC2)NC(=O)c2cc(OCC(F)F)c(C3CC3)cn2)no1` (centres unmarked) [Example 145, 5-cyclopropyl-N-[1-cyclopropyl-2-(5-methyl-1,2,4-oxadiazol-3-yl)propan-2-yl]-4-(2,2-difluoroethoxy)pyridine-2-carboxamide], the pEC50 was 8.47 on human CB2 receptors and less than 5.00 on human CB1 receptors (setting [3]).
As to `CC(C)[C@@](C)(CO)NC(=O)c1cc(OCC2CC2)c(Cl)cn1` [Example 10, 5-Chloro-4-cyclopropylmethoxy-pyridine-2-carboxylic acid ((S)-1-hydroxymethyl-1,2-dimethyl-propyl)-amide], the pEC50 on human CB2 receptors was 7.92; on human CB1 receptors (setting [3]), less than 5.00.
`Cc1nnc(C(NC(=O)c2cc(OCC(F)(F)F)c(C3CC3)cn2)C(C)(C)C)o1` (single isomer, unassigned) [Example 179, 5-cyclopropyl-N-[2,2-dimethyl-1-(5-methyl-1,3,4-oxadiazol-2-yl)propyl]-4-(2,2,2-trifluoroethoxy)pyridine-2-carboxamide]: on human CB2 receptors, the response was half-maximal at 0.0351 µM (EC50). For the same molecule, the pEC50 at human CB1 receptors (setting [1]) is less than 5.00.
For the molecule `Cc1nc(C(C)(CS(C)(=O)=O)NC(=O)c2cc(OCCF)c(C3CC3)cn2)no1` (single isomer, unassigned) [Example 279, 5-cyclopropyl-4-(2-fluoroethoxy)-N-[2-(5-methyl-1,2,4-oxadiazol-3-yl)-1-methylsulfonylpropan-2-yl]pyridine-2-carboxamide], the values for the EC50 at human CB2 receptors and on human CB1 receptors (setting [2]) were 0.173 µM and more than 10 µM, respectively.
With `CC(CC1CC1)(NC(=O)c1cc(OCC(F)(F)F)c(C2CC2)cn1)c1nnn[nH]1` (centres unmarked) [Example 159, 5-cyclopropyl-N-[1-cyclopropyl-2-(1H-tetrazol-5-yl)propan-2-yl]-4-(2,2,2-trifluoroethoxy)pyridine-2-carboxamide], the pEC50 at human CB2 receptors is 6.03; on human CB1 receptors (setting [3]) it was less than 5.00.
As to `Cc1nc([C@](C)(CC(C)(C)C)NC(=O)c2cc(OCC(F)(F)F)c(C3CC3)cn2)no1` (single isomer, unassigned) [Example 105, 5-Cyclopropyl-4-(2,2,2-trifluoro-ethoxy)-pyridine-2-carboxylic acid [1,3,3-trimethyl-1-(5-methyl-[1,2,4]oxadiazol-3-yl)-butyl]-amide], the EC50 on human CB2 receptors was determined as 0.0023 µM; at human CB1 receptors (setting [2]) it was 0.33 µM.
In the case of `C[C@H](Oc1cc(C(=O)NC(C)(CC(N)=O)C2CC2)ncc1C1CC1)C(F)(F)F` (stereo partly drawn) [Example 259, N-(4-amino-2-cyclopropyl-4-oxobutan-2-yl)-5-cyclopropyl-4-[(2S)-1,1,1-trifluoropropan-2-yl]oxypyridine-2-carboxamide], the pEC50 on human CB2 receptors was 9.30; at human CB1 receptors (setting [3]) it was less than 5.00.
The matching figures for `Cc1nc(C(C)(CS(C)(=O)=O)NC(=O)c2cc(O[C@@H](C)C(F)(F)F)c(C3CCC3)cn2)no1` (stereo partly drawn) [Example 119, 5-cyclobutyl-N-[2-(5-methyl-1,2,4-oxadiazol-3-yl)-1-methylsulfonylpropan-2-yl]-4-[(2S)-1,1,1-trifluoropropan-2-yl]oxypyridine-2-carboxamide]: 8.04 and less than 5.00.
In the case of `O=C(NC1(c2ncco2)COC1)c1cc(OCC2CC2)c(Cl)cn1` [Example 36, 5-Chloro-4-cyclopropylmethoxy-pyridine-2-carboxylic acid (3-oxazol-2-yl-oxetan-3-yl)-amide], the pEC50 on human CB2 receptors is 7.29; on human CB1 receptors (setting [3]) it was less than 5.00.
As for `Cc1nc([C@@](C)(CC(C)(C)C)NC(=O)c2cc(OCC(F)(F)F)c(C3CC3)cn2)no1` (single isomer, unassigned) [Example 104, 5-Cyclopropyl-4-(2,2,2-trifluoro-ethoxy)-pyridine-2-carboxylic acid [1,3,3-trimethyl-1-(5-methyl-[1,2,4]oxadiazol-3-yl)-butyl]-amide], the results for the EC50 at human CB2 receptors and on human CB1 receptors (setting [2]) were 0.0298 µM and more than 10 µM, respectively.
`Cc1nc(C(C)(CS(C)(=O)=O)NC(=O)c2cc(OCC(F)(F)F)c(C3=CCC3)cn2)no1` (centres unmarked) [Example 127, 5-(cyclobuten-1-yl)-N-[2-(5-methyl-1,2,4-oxadiazol-3-yl)-1-methylsulfonylpropan-2-yl]-4-(2,2,2-trifluoroethoxy)pyridine-2-carboxamide]: the pEC50 is 7.71 on human CB2 receptors and less than 5.00 at human CB1 receptors (setting [3]).
For `Cc1nc(C(C)(CS(C)(=O)=O)NC(=O)c2cc(O[C@@H](C)C(F)(F)F)c(C3(F)CCC3)cn2)no1` (stereo partly drawn) [Example 130, 5-(1-fluorocyclobutyl)-N-[2-(5-methyl-1,2,4-oxadiazol-3-yl)-1-methylsulfonylpropan-2-yl]-4-[(2S)-1,1,1-trifluoropropan-2-yl]oxypyridine-2-carboxamide], the pEC50 on human CB2 receptors was 7.63; at human CB1 receptors (setting [3]), less than 5.00.
As to `Cc1nnc(C(C)(CC2CC2)NC(=O)c2cc(OCC(F)(F)F)c(C3CC3)cn2)o1` (centres unmarked) [Example 173, 5-cyclopropyl-N-[1-cyclopropyl-2-(5-methyl-1,3,4-oxadiazol-2-yl)propan-2-yl]-4-(2,2,2-trifluoroethoxy)pyridine-2-carboxamide], the pEC50 was 7.26 on human CB2 receptors and less than 5.00 at human CB1 receptors (setting [3]).
For the molecule `Cc1nc(C(C)(CC2CC2)NC(=O)c2cc(OCC(F)(F)F)c(C3CC3)cn2)no1` (single isomer, unassigned; enantiomer a) [Example 66, 5-Cyclopropyl-4-(2,2,2-trifluoro-ethoxy)-pyridine-2-carboxylic acid [2-cyclopropyl-1-methyl-1-(5-methyl-[1,2,4]oxadiazol-3-yl)-ethyl]-amide (enantiomer A)], the EC50 at human CB2 receptors is 0.00595 µM; at human CB1 receptors (setting [2]), more than 10 µM.

For orientation: EC50 means the concentration needed to bring the measured effect to its halfway point. A lower EC50 goes with a more potent agent. Broadly, the pEC50 is the EC50 on a negative log10 scale, so that one unit is a factor of ten.
